Test results reported in publication PMC5442318, “Hundreds of dual-stage antimalarial molecules discovered by a functional gametocyte screen” (Nature Communications, 2017).
Where two headings read alike, the source gives them in different places.

Experiments:
[1] = system: HepG2 cells; assay: HepG2 cytotoxicity assay; assay type: cell-based
Procedure, shortened: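 Post-incubation CellTiter-Glo luminescence; 30 min RT equilibration, 10 min RT stabilization before reading.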

[2] = system: P. falciparum stage V female gametocytes; assay: P. falciparum female gametocyte activation assay (Pf FGAA), 24 h or 48 h preincubation, Pfs25 expression readout; assay type: cell-based, Plasmodium falciparum NF54; details: for Biological profile: Pf FGAA with 48 h, 24 h or post-activation addition, active = IC50 below 2 μM; for IC50: Plasmodium falciparum; for Pf FGAA classification: SLOW / FAST / GAMETE from activity at 48h, 24h, 0h incubation
Procedure, shortened: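 Purified stage V gametocytes from P. falciparum NF54 gametocyte cultures were exposed to compounds for 24 h or 48 h at 37 °C under 3% O2/5% CO2, then activated by temperature drop plus xanthurenic acid. Activated females were stained with Cy3-anti-Pfs25 (0.5 μg ml^−1) for 24 h at 26 °C and counted by high-content imaging; pIC50 by nonlinear regression.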

[3] = HepG2 TOX50 versus Pf FGAA IC50
[4] = 24h incubation time, read-out: Pf FGAA IC50 (µM) 24h
[5] = stage V gametocytes, 48 h exposure, read-out: PfFGAA IC50

| SMILES | Tox50 ([1]; HepG2, 48 h) [µM] | Selectivity ratio [1, 3] | HepG2 cells TOX50 ([1]; HepG2 cells) [µM] | HepG2 cells mean TOX50 ([1]; HepG2 cells; mean) [µM] | Biological profile [2] | IC50 [2, 4] [µM] | IC50 [2, 5] [µM] | Pf FGAA classification [2] | IC50 ([2]; P. falciparum female gametocytes, mean, read-out: Gametocytes mean Pf FGAA IC50) [µM] | Selectivity ratio ([1]; HepG2 TOX50 / Pf FGAA IC50) | HepG2 cells mean TOX50 ([1]; mean; HepG2 cells) [µM] | IC50 ([2]; 48h incubation time, read-out: Pf FGAA IC50 (µM) 48h) [µM] | IC50 ([2]; mean, P. falciparum female gametocyte activation assay, read-out: Gametocytes mean Pf FGAA IC50) [µM] |
| --- | --- | --- | --- | --- | --- | --- | --- | --- | --- | --- | --- | --- | --- |
| FC(F)(F)c1cnc(Sc2nnc(-c3ccncc3)o2)c(Cl)c1 [TCMDC-123767] | 100 | >625 | >100 | >100 | Slow-acting | > 20 | 0.16 | SLOW |  |  |  |  |  |
| CC1Cc2ccccc2N1S(=O)(=O)c1cccc(C(=O)Nc2nc(-c3ccccn3)cs2)c1 (stereo not drawn) [TCMDC-124559] | >100 | 146.27 |  | 50.12 | Fast-acting |  | 0.5 | FAST | 0.34 |  |  |  |  |
| COc1cc(OC)cc(C(=O)Nc2nc(-c3ccccn3)cs2)c1 [TCMDC-125345] | 39.82 | 111.27 |  | 39.82 | Fast-acting | 0.96 | 0.36 | FAST |  |  |  |  |  |
| CC(C)(CNC(=O)[C@H]1CCCCN1)c1nc(-c2ccc(Cl)c(O)c2)c(-c2ccncc2)[nH]1 [TCMDC-141070] | 28.96 |  |  |  | Gamete-targeting | 1.68 | 0.53 | GAMETE |  | 54.30 | 28.96 |  |  |
| NCC1(c2nc(-c3ccc(Cl)c(O)c3)c(-c3ccncc3)[nH]2)CCCCC1 [TCMDC-141154] | 11.9 |  |  |  | Gamete-targeting | 0.41 | 0.21 | GAMETE |  | 56.01 | 11.90 |  |  |
| Cc1ccc(Cn2nc(Cl)c(N3CCNCC3)cc2=O)cc1NC(=O)Nc1ccc(-c2ccccc2)cc1 [TCMDC-141698] | 4.79 |  |  |  | Gamete-targeting | 0.44 | 0.44 | GAMETE |  | 10.79 | 4.79 | 0.44 | 0.44 |
